Reference: paper PMC6259569, “Pancreatic Lipase Inhibition by C-Glycosidic Flavones Isolated from Eremochloa ophiuroides” (Molecules, 2010)

The compounds below were run against T1, porcine pancreatic lipase (Sus scrofa, UniProt P00591) (assay: Pancreatic lipase inhibition assay (p-NPB hydrolysis, OD 405 nm)). Conditions: substrate p-NPB, 37 °C, mean ± S.D. of quadruplicate experiments, read-out: IC50, pancreatic lipase inhibitory activity (concentration that caused a 50% reduction in enzyme activity).
T1 construct: purchased Sigma, St. Louis, MO
T1 sequence (P00591 1-450): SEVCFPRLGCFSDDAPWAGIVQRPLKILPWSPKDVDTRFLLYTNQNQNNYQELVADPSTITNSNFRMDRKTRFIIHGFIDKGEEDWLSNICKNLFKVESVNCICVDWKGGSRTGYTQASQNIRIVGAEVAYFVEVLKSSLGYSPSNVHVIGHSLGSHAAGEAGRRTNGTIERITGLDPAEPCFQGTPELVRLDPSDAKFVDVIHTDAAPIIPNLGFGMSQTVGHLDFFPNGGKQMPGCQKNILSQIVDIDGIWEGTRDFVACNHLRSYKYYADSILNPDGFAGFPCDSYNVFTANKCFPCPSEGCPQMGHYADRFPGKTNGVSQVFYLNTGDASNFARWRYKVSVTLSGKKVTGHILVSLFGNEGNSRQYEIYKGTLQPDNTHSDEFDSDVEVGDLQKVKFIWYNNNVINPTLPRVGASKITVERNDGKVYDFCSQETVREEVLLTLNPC
Assay type: biochemical
Experimental: The ability of the compounds to inhibit porcine pancreatic lipase was evaluated using previously reported methods with a minor modification. Briefly, an enzyme buffer was prepared by the addition of 30 μL (10 units) of a solution of porcine pancreatic lipase (Sigma, St. Louis, MO) in10 mM MOPS (morpholinepropanesulphonic acid), and 1 mM EDTA, pH 6.8 to 850 μL of Tris buffer (100 mM Tris-HC1 and 5 mM CaCl2, pH 7.0). […] Pancreatic lipase activity was determined by measuring the hydrolysis of p-NPB to p-nitrophenol at 405 nm using an ELISA reader (Tecan, Infinite F200, Austria). Inhibition of lipase activity was expressed as the percentage decrease in the OD when porcine pancreatic lipase was incubated with the test compounds.

Row | Structure (SMILES) | IC50
1 | O=C(/C=C/c1ccc(O)c(O)c1)O[C@@H]1C[C@](O)(C(=O)O)C[C@@H](O)[C@H]1O [Compound 7, chlorogenic acid] | > 200 µM
2 | O=C(O)/C=C/c1ccc(O)c(O)c1 [Compound 9, caffeic acid] | > 200 µM
3 | C[C@H]1O[C@@H](c2c(O)cc3oc(-c4ccc(O)c(O)c4)cc(=O)c3c2O)C[C@H](O)[C@H]1O [Compound 1, luteolin 6-C-β-D-boivinopyranoside] | 50.5 ± 3.9 µM
4 | O=c1cc(-c2ccc(O)c(O)c2)oc2cc(O)cc(O)c12 [Compound 6, luteolin] | > 200 µM
5 | O=c1cc(-c2ccc(O)c(O)c2)oc2cc(O)c([C@@H]3O[C@H](CO)[C@@H](O)[C@H](O)[C@H]3O)c(O)c12 [Compound 3, isoorientin] | 44.6 ± 1.3 µM

Stronger by IC50, values ahead:

Row | IC50 | Structure (SMILES)
6 | 31.6 ± 2.7 µM | O=c1cc(-c2ccc(O)c(O)c2)oc2c([C@@H]3O[C@H](CO)[C@@H](O)[C@H](O)[C@H]3O)c(O)cc(O)c12 [Compound 2, orientin]
7 | 33.6 ± 2 µM | COC(=O)[C@]1(O)C[C@@H](O)[C@@H](O)[C@H](OC(=O)/C=C/c2ccc(O)c(O)c2)C1 [Compound 8, methyl chlorogenate]
8 | 18.5 ± 2.6 µM | CC1OC(OC2C(c3c(O)cc4oc(-c5ccc(O)c(O)c5)cc(=O)c4c3O)OC(CO)C(O)C2O)C(O)C(O)C1O [Compound 5, isoorientin 2-O-α-L-rhamnoside]
